ChEMBL document CHEMBL3046418, “Synthesis and Herbicidal Activity of Sulfonylurea Compounds with Imidazo [1, 2-a] pyridine Moiety” (2001)

Legend:
Assay type in all cases: functional
Bromus tectorum [1] = test: Herbicidal activity against Bromus tectorum at 100 g/ha after 3 weeks by post-emergence greenhouse test
Avena fatua [2] = test: Herbicidal activity against Avena fatua after 4 weeks by pre-emergence greenhouse test; parameters: concentration or dose not given beside the values
Avena fatua [3] = test: Herbicidal activity against Avena fatua after 3 weeks by post-emergence greenhouse test; parameters: concentration or dose not given beside the values
Mutarda arvensis [4] = test: Herbicidal activity against Sinapis arvensis after 4 weeks by pre-emergence greenhouse test; parameters: concentration or dose not given beside the values
Alopecurus myosuroides [5] = test: Herbicidal activity against Alopecurus myosuroides at 400 g/ha after 3 weeks by post-emergence greenhouse test
Chenopodium album [6] = test: Herbicidal activity against Chenopodium album at 25 g/ha after 3 weeks by post-emergence greenhouse test
Chenopodium album [7] = test: Herbicidal activity against Chenopodium album after 3 weeks by post-emergence greenhouse test; parameters: concentration or dose not given beside the values
Bromus tectorum [8] = test: Herbicidal activity against Bromus tectorum after 3 weeks by post-emergence greenhouse test; parameters: concentration or dose not given beside the values
Mutarda arvensis [9] = test: Herbicidal activity against Sinapis arvensis at 25 g/ha after 3 weeks by post-emergence greenhouse test
Matricaria chamomilla [10] = test: Herbicidal activity against Matricaria chamomilla at 25 g/ha after 3 weeks by post-emergence greenhouse test
Matricaria chamomilla [11] = test: Herbicidal activity against Matricaria chamomilla at 400 g/ha after 3 weeks by post-emergence greenhouse test
Matricaria chamomilla [12] = test: Herbicidal activity against Matricaria chamomilla at 100 g/ha after 3 weeks by post-emergence greenhouse test
Mutarda arvensis [13] = test: Herbicidal activity against Sinapis arvensis after 3 weeks by post-emergence greenhouse test; parameters: concentration or dose not given beside the values
Stellaria media [14] = test: Herbicidal activity against Stellaria media at 25 g/ha after 3 weeks by post-emergence greenhouse test
Avena fatua [15] = test: Herbicidal activity against Avena fatua at 25 g/ha after 3 weeks by post-emergence greenhouse test
Chenopodium album [16] = test: Herbicidal activity against Chenopodium album after 4 weeks by pre-emergence greenhouse test; parameters: concentration or dose not given beside the values
Bromus tectorum [17] = test: Herbicidal activity against Bromus tectorum at 25 g/ha after 3 weeks by post-emergence greenhouse test
Avena fatua [18] = test: Herbicidal activity against Avena fatua at 400 g/ha after 3 weeks by post-emergence greenhouse test
Stellaria media [19] = test: Herbicidal activity against Stellaria media at 100 g/ha after 3 weeks by post-emergence greenhouse test
Chenopodium album [20] = test: Herbicidal activity against Chenopodium album at 400 g/ha after 3 weeks by post-emergence greenhouse test
Chenopodium album [21] = test: Herbicidal activity against Chenopodium album at 100 g/ha after 3 weeks by post-emergence greenhouse test
Avena fatua [22] = test: Herbicidal activity against Avena fatua at 100 g/ha after 3 weeks by post-emergence greenhouse test
Alopecurus myosuroides [23] = test: Herbicidal activity against Alopecurus myosuroides at 100 g/ha after 3 weeks by post-emergence greenhouse test
Alopecurus myosuroides [24] = test: Herbicidal activity against Alopecurus myosuroides after 4 weeks by pre-emergence greenhouse test; parameters: concentration or dose not given beside the values
Triticum aestivum [25] = test: Phytotoxic activity against Triticum aestivum (wheat) after 4 weeks by pre-emergence greenhouse test
Triticum aestivum [26] = test: Phytotoxic activity against Triticum aestivum (wheat) at 400 g/ha after 3 weeks by post-emergence greenhouse test
Alopecurus myosuroides [27] = test: Herbicidal activity against Alopecurus myosuroides at 25 g/ha after 3 weeks by post-emergence greenhouse test
Triticum aestivum [28] = test: Phytotoxic activity against Triticum aestivum (wheat) at 25 g/ha after 3 weeks by post-emergence greenhouse test
Mutarda arvensis [29] = test: Herbicidal activity against Sinapis arvensis at 400 g/ha after 3 weeks by post-emergence greenhouse test
Triticum aestivum [30] = test: Phytotoxic activity against Triticum aestivum (wheat) at 100 g/ha after 3 weeks by post-emergence greenhouse test
Matricaria chamomilla [31] = test: Herbicidal activity against Matricaria chamomilla after 4 weeks by pre-emergence greenhouse test; parameters: concentration or dose not given beside the values
Stellaria media [32] = test: Herbicidal activity against Stellaria media after 3 weeks by post-emergence greenhouse test; parameters: concentration or dose not given beside the values
Stellaria media [33] = test: Herbicidal activity against Stellaria media at 400 g/ha after 3 weeks by post-emergence greenhouse test
Triticum aestivum [34] = test: Phytotoxic activity against Triticum aestivum (wheat) after 3 weeks by post-emergence greenhouse test; parameters: concentration or dose not given beside the values
Matricaria chamomilla [35] = test: Herbicidal activity against Matricaria chamomilla after 3 weeks by post-emergence greenhouse test; parameters: concentration or dose not given beside the values
Alopecurus myosuroides [36] = test: Herbicidal activity against Alopecurus myosuroides after 3 weeks by post-emergence greenhouse test; parameters: concentration or dose not given beside the values
Bromus tectorum [37] = test: Herbicidal activity against Bromus tectorum at 400 g/ha after 3 weeks by post-emergence greenhouse test
Stellaria media [38] = test: Herbicidal activity against Stellaria media after 4 weeks by pre-emergence greenhouse test; parameters: concentration or dose not given beside the values
Mutarda arvensis [39] = test: Herbicidal activity against Sinapis arvensis at 100 g/ha after 3 weeks by post-emergence greenhouse test
Bromus tectorum [40] = test: Herbicidal activity against Bromus tectorum after 4 weeks by pre-emergence greenhouse test; parameters: concentration or dose not given beside the values
Avena fatua [41] = test: Herbicidal activity against Avena fatua at 250 g/ha after 3 weeks by post-emergence greenhouse test
Bromus tectorum [42] = test: Herbicidal activity against Bromus tectorum at 250 g/ha after 3 weeks by post-emergence greenhouse test
Stellaria media [43] = test: Herbicidal activity against Stellaria media at 250 g/ha after 3 weeks by post-emergence greenhouse test
Stellaria media [44] = test: Herbicidal activity against Stellaria media at 125 g/ha after 3 weeks by post-emergence greenhouse test
Alopecurus myosuroides [45] = test: Herbicidal activity against Alopecurus myosuroides at 125 g/ha after 3 weeks by post-emergence greenhouse test
Bromus tectorum [46] = test: Herbicidal activity against Bromus tectorum at 500 g/ha after 3 weeks by post-emergence greenhouse test
Alopecurus myosuroides [47] = test: Herbicidal activity against Alopecurus myosuroides at 500 g/ha after 3 weeks by post-emergence greenhouse test
Matricaria chamomilla [48] = test: Herbicidal activity against Matricaria chamomilla at 500 g/ha after 3 weeks by post-emergence greenhouse test
Mutarda arvensis [49] = test: Herbicidal activity against Sinapis arvensis at 125 g/ha after 3 weeks by post-emergence greenhouse test
Mutarda arvensis [50] = test: Herbicidal activity against Sinapis arvensis at 500 g/ha after 3 weeks by post-emergence greenhouse test
Avena fatua [51] = test: Herbicidal activity against Avena fatua at 500 g/ha after 3 weeks by post-emergence greenhouse test
Stellaria media [52] = test: Herbicidal activity against Stellaria media at 500 g/ha after 3 weeks by post-emergence greenhouse test
Bromus tectorum [53] = test: Herbicidal activity against Bromus tectorum at 125 g/ha after 3 weeks by post-emergence greenhouse test
Matricaria chamomilla [54] = test: Herbicidal activity against Matricaria chamomilla at 250 g/ha after 3 weeks by post-emergence greenhouse test
Alopecurus myosuroides [55] = test: Herbicidal activity against Alopecurus myosuroides at 250 g/ha after 3 weeks by post-emergence greenhouse test
Mutarda arvensis [56] = test: Herbicidal activity against Sinapis arvensis at 250 g/ha after 3 weeks by post-emergence greenhouse test
Matricaria chamomilla [57] = test: Herbicidal activity against Matricaria chamomilla at 125 g/ha after 3 weeks by post-emergence greenhouse test
Triticum aestivum [58] = test: Phytotoxic activity against Triticum aestivum (wheat) at 125 g/ha after 3 weeks by post-emergence greenhouse test
Avena fatua [59] = test: Herbicidal activity against Avena fatua at 125 g/ha after 3 weeks by post-emergence greenhouse test
Triticum aestivum [60] = test: Phytotoxic activity against Triticum aestivum (wheat) at 250 g/ha after 3 weeks by post-emergence greenhouse test
Triticum aestivum [61] = test: Phytotoxic activity against Triticum aestivum (wheat) at 500 g/ha after 3 weeks by post-emergence greenhouse test

CCS(=O)(=O)c1nc2ccccn2c1S(=O)(=O)NC(=O)Nc1nc(OC)cc(OC)n1 [SULFOSULFURON]
51%: Activity (Avena fatua [2]) | Activity (Chenopodium album [7]) | Activity (Chenopodium album [20])
1%: Activity (Chenopodium album [6]) | Activity (Chenopodium album [21])
88%: Activity (Bromus tectorum [1]) | Activity (Avena fatua [3]) | Activity (Mutarda arvensis [4]) | Activity (Alopecurus myosuroides [5]) | Activity (Bromus tectorum [8]) | Activity (Mutarda arvensis [9]) | Activity (Matricaria chamomilla [10]) | Activity (Matricaria chamomilla [11]) | Activity (Matricaria chamomilla [12]) | Activity (Mutarda arvensis [13]) | Activity (Stellaria media [14]) | Activity (Avena fatua [15]) | Activity (Chenopodium album [16]) | Activity (Bromus tectorum [17]) | Activity (Stellaria media [19]) | Activity (Avena fatua [22]) | Activity (Alopecurus myosuroides [23]) | Activity (Alopecurus myosuroides [24]) | Activity (Alopecurus myosuroides [27]) | Activity (Mutarda arvensis [29]) | Activity (Matricaria chamomilla [31]) | Activity (Stellaria media [32]) | Activity (Stellaria media [33]) | Activity (Matricaria chamomilla [35]) | Activity (Alopecurus myosuroides [36]) | Activity (Bromus tectorum [37]) | Activity (Stellaria media [38]) | Activity (Mutarda arvensis [39]) | Activity (Bromus tectorum [40])
0%: Activity (Avena fatua [18]) | Phytotoxicity (Triticum aestivum [25]) | Phytotoxicity (Triticum aestivum [26]) | Phytotoxicity (Triticum aestivum [28]) | Phytotoxicity (Triticum aestivum [30]) | Activity (Triticum aestivum [34])

CSc1nnc(C(C)(C)C)c(=O)n1N [METRIBUZIN]
88%: Activity (Stellaria media [44]) | Activity (Bromus tectorum [46])
51%: Activity (Alopecurus myosuroides [45]) | Activity (Alopecurus myosuroides [55]) | Activity (Matricaria chamomilla [57])
0%: Phytotoxicity (Triticum aestivum [58]) | Activity (Avena fatua [59])
100%: Activity (Stellaria media [43]) | Activity (Alopecurus myosuroides [47]) | Activity (Matricaria chamomilla [48]) | Activity (Mutarda arvensis [49]) | Activity (Mutarda arvensis [50]) | Activity (Stellaria media [52]) | Activity (Matricaria chamomilla [54]) | Activity (Mutarda arvensis [56])
76%: Activity (Avena fatua [51])
1%: Activity (Avena fatua [41]) | Activity (Bromus tectorum [42]) | Activity (Bromus tectorum [53]) | Phytotoxicity (Triticum aestivum [60]) | Phytotoxicity (Triticum aestivum [61])
